The values below come from PubChem BioAssay (NCI).

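Where inhibition never reached the appropriate level, the endpoint shown equals the highest concentration tested. Otherwise, values were interpolated linearly from a five-concentration, 48-hour dose response in 96-well plates. TGI denotes the concentration required for complete inhibition of growth.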 A value given as a limit tells only on which side of the number the result lay.

Test systems include HCT-116 colon; PC-3 prostate; RPMI-8226 leukemia; SF-295 CNS; SNB-19 CNS; SNB-75 CNS; T-47D breast; UACC-257 melanoma; UO-31 renal.
What all share (assay): NCI anticancer screen, dose series, 48 h

On to `Cc1ccc(C(=O)Nc2ccc(CP(=O)(O)O)cc2CP(=O)(O)O)cc1N`, for which the TGI with HCT-116 colon, with PC-3 prostate, in the test on RPMI-8226 leukemia, in the test on SF-295 CNS, in the test on SNB-19 CNS and in the test on SNB-75 CNS was above 100 µM throughout. For the same compound, the TGI in the test with T-47D breast, in the test with UACC-257 melanoma and in the test on UO-31 renal was above 100 µM throughout.
In the case of `Clc1[nH]nc2ccccc12`, the TGI with HCT-116 colon, in the test with PC-3 prostate, in the test on RPMI-8226 leukemia, with SF-295 CNS, with SNB-19 CNS and with SNB-75 CNS was above 100 µM in each case. Further, the TGI in the test with T-47D breast, in the test with UACC-257 melanoma and with UO-31 renal was above 100 µM each time.
Consider `CC(=O)OC12c3ccccc3C(c3ccccc31)C1C(=O)N(N=C(C)C)C(=O)C12` (stereo not given), for which the TGI in the test on HCT-116 colon, with PC-3 prostate, in the test with RPMI-8226 leukemia, in the test with SF-295 CNS, with SNB-19 CNS and in the test on SNB-75 CNS was above 100 µM throughout. Also, the TGI in the test on T-47D breast, in the test on UACC-257 melanoma and with UO-31 renal was above 100 µM each time.
Consider `Cc1cc(NC(=O)NC(=O)c2ccccc2NC(=O)CN(C)C)ccc1Oc1ncc(Br)cn1`, for which the TGI with HCT-116 colon is above 79.4 µM; in the test with PC-3 prostate it was above 100 µM; with RPMI-8226 leukemia, above 100 µM; in the test on SF-295 CNS, 16.2 µM; in the test on SNB-19 CNS, above 100 µM; with SNB-75 CNS, 37.2 µM. For the same compound, the TGI in the test on T-47D breast, with UACC-257 melanoma and in the test on UO-31 renal was above 100 µM throughout.
For the compound `COc1cc2c(cc1O)C(Cc1ccc(OCc3ccccc3)c(OCc3ccccc3)c1)N(C(=O)NCCc1ccccc1)CC2` (stereo not given), the TGI with HCT-116 colon, in the test on PC-3 prostate, in the test with RPMI-8226 leukemia, in the test on SF-295 CNS, in the test with SNB-19 CNS and in the test with SNB-75 CNS was above 100 µM in each case. In addition, the TGI in the test with T-47D breast, in the test with UACC-257 melanoma and in the test on UO-31 renal was above 100 µM in each case.
Consider `CC(C)CNP(=O)(NCC(C)C)Oc1ccc(CC(NC(=O)OCc2ccccc2)C(=O)OCc2ccccc2)cc1` (stereo not given), for which the TGI in the test with HCT-116 colon was 37.6 µM; with PC-3 prostate, 30.8 µM; in the test on RPMI-8226 leukemia, 40 µM; with SF-295 CNS it was 98.4 µM; with SNB-19 CNS, 57.8 µM; in the test on SNB-75 CNS, 39.1 µM. Also, the results for the TGI in the test with T-47D breast, with UACC-257 melanoma and in the test on UO-31 renal were 33.5 µM, 59.1 µM and 39 µM, respectively.
Regarding `COc1ccc(C2C(=O)c3ccc(OC)cc3OC2c2cccnc2)cc1` (stereo not given), the TGI in the test on HCT-116 colon, in the test with PC-3 prostate, in the test on RPMI-8226 leukemia, in the test with SF-295 CNS, in the test on SNB-19 CNS and in the test on SNB-75 CNS was above 100 µM in each case. The TGI in the test on T-47D breast, in the test with UACC-257 melanoma and in the test on UO-31 renal was above 100 µM throughout.
Consider `Cc1nnc(SCc2nc(C#N)c(C#N)nc2CSc2nnc(C)s2)s1`, for which the TGI with HCT-116 colon is 11.5 µM; with PC-3 prostate, 41.1 µM; in the test with RPMI-8226 leukemia, 18 µM; in the test on SF-295 CNS, above 100 µM; in the test with SNB-19 CNS, above 100 µM; in the test with SNB-75 CNS, 41.1 µM. The TGI in the test on T-47D breast turned out to be 17.3 µM; in the test with UACC-257 melanoma, 28.3 µM; in the test on UO-31 renal, 24.1 µM.
Consider `COc1cc(C2c3cc4c(cc3[C@@H](Nc3ccc(F)cc3)C3COC[C@H]23)OCO4)cc(OC)c1O` (stereo not given in full), for which the TGI is 7.9 µM with HCT-116 colon; above 25 µM in the test on PC-3 prostate; 13.1 µM in the test on RPMI-8226 leukemia; 5.32 µM in the test with SF-295 CNS; 16.2 µM with SNB-19 CNS; 17 µM in the test on SNB-75 CNS. The TGI in the test on T-47D breast is above 25 µM; in the test with UACC-257 melanoma it was above 25 µM; with UO-31 renal, 4.57 µM.
Turning to `CCNC(=S)N/N=C(/C)c1cccc(/C(C)=N\NC(=S)NCC)n1`, the TGI is 13.1 µM in the test on HCT-116 colon; above 100 µM in the test on PC-3 prostate; 25.7 µM in the test with RPMI-8226 leukemia; above 38.8 µM in the test with SF-295 CNS; above 100 µM with SNB-19 CNS; above 73.2 µM in the test on SNB-75 CNS. The TGI is above 45.4 µM with T-47D breast, 31.6 µM in the test on UACC-257 melanoma and above 63.6 µM with UO-31 renal.
As to `Cc1cc2nc(N3C(=O)/C(=C/Cc4ccco4)N=C3c3ccccc3)sc2cc1C`, the TGI is 54 µM in the test on HCT-116 colon; 54 µM in the test with PC-3 prostate; above 100 µM in the test with RPMI-8226 leukemia; above 100 µM in the test with SF-295 CNS; above 100 µM with SNB-19 CNS; 59.9 µM in the test on SNB-75 CNS. For the same compound, the TGI with T-47D breast, in the test on UACC-257 melanoma and in the test with UO-31 renal was above 100 µM throughout.
Regarding `CC(C)OC(=O)C(NC(=O)C(CC(=O)OCc1ccccc1)NC(=O)OCc1ccccc1)NC(=O)C1C(C)(C)CCC1(C)C` (stereo not given), the TGI in the test with HCT-116 colon was 12 µM; in the test with PC-3 prostate, 11.2 µM; in the test on RPMI-8226 leukemia, 24.2 µM; with SF-295 CNS, 31.1 µM; in the test on SNB-19 CNS, 16.1 µM; with SNB-75 CNS it was 11.5 µM. The TGI in the test on T-47D breast was above 69.5 µM; in the test on UACC-257 melanoma, above 60.8 µM; with UO-31 renal, 13.4 µM.
Turning to `CC1(C)CCC[C@@]2(C)C1CC[C@@]1(CO)O[C@H](C3=CC(=O)OC3O)C[C@H]12` (stereo not given in full), the TGI in the test with HCT-116 colon is 18.6 µM; with PC-3 prostate, 29.5 µM; in the test on RPMI-8226 leukemia, above 36.1 µM; in the test with SF-295 CNS it was 50.5 µM; in the test with SNB-19 CNS it was 32.3 µM; with SNB-75 CNS, 29.2 µM. The TGI with T-47D breast was 25.8 µM; in the test on UACC-257 melanoma it was 35 µM; with UO-31 renal it was 29.2 µM.
In the case of `O=C(O)[C@H]1NC[C@H]2C(Br)=NO[C@@H]12`, the TGI in the test on HCT-116 colon, with PC-3 prostate, in the test with RPMI-8226 leukemia, in the test on SF-295 CNS, in the test with SNB-19 CNS and in the test with SNB-75 CNS was above 100 µM throughout. For the same compound, the TGI in the test on T-47D breast, with UACC-257 melanoma and in the test with UO-31 renal was above 100 µM in each case.
Turning to `O=C(/C=C/c1ccccc1)c1cc(CN2CCOCC2)c(O)c(CN2CCOCC2)c1`, the TGI is 31.3 µM in the test with HCT-116 colon; 38.4 µM in the test on PC-3 prostate; 21.4 µM with RPMI-8226 leukemia; 34.8 µM with SF-295 CNS; above 100 µM in the test on SNB-19 CNS; 38.9 µM in the test with SNB-75 CNS. Moreover, the TGI in the test on T-47D breast was determined as 48 µM; in the test on UACC-257 melanoma, 31.1 µM; with UO-31 renal, 31.3 µM.
